Results taken from patent US20020128214A1, “C-glucosyl ether lipids” (priority 2000, published 2002).

How the values were obtained:
MCF-7 (breast) = test: Anti-proliferation, cell count after 48 h (Coulter Counter), MCF-7; format: cell-based; conditions: treated 48 hours, extrapolated from FIGS. 1-9
Experimental: (§1) In this study, the anti-proliferative effects of each of four glucosyl ether lipid compounds were assessed on a panel of epithelial cancer cell lines. Two Cglucosyl ether lipids in accordance with the invention (compounds 4 and 17) were evaluated. In addition, a 2′-deoxy C-glucosyl ether lipid (compound 2) and a 2′-amino-2′-deoxy O-glucosyl ether lipid (compound 3), were evaluated. Thirty mM stock concentration of each of the four compounds were prepared in ethanol.
(§2) The experimental procedure used is detailed in Lu, X. and Arthur, G., Cancer Res., 52:2806-2812 (1992), the pertinent parts of which are incorporated by reference. Briefly, the epithelial cancer cell lines, namely SK-N-MC and SK-N-SH (neuroblastoma); DU145 (prostate); A498 (kidney); MDA-MB-468, MDA-MB-231, HS578t, MCF-7 and BT549 (breast), were subcultured into 24-well plates and allowed to grow to exponential phase. The medium was changed and replaced with one containing the glucosyl ether lipid compounds ([…]) in 10% FBS-supplemented medium. The cell numbers in representative wells were determined at the time of addition of the compounds. After 48 hours, the cells were detached with trypsin and the numbers were determined with a Coulter Counter. The increase in cell numbers were expressed as a percentage relative to those in wells without any drug (control).
(§3) See Erukulla, et al., J. Med. Chem., 39:1545-1548 (1996), the pertinent portions of which are incorporated herein by reference. Table 1 summarizes the comparative test results for 17, 3, 4, and the 2-deoxy analog of 4, (3S)-3-O-methyl-4-O-hexadecyl-2′-deoxy-β-D-glucopyranosylbutane (compound 2), which had been described in our earlier paper (Yang et al., Org. Lett., 1:2149-2151 (1999)). The method utilized was the same as that described in Example 2 above, and the Gl50 values were extrapolated from the results shown in FIGS. 1-9. In all nine examples, the close similarity in antiproliferative activity is striking.

MDA-MB-468 (breast) = test: Anti-proliferation, cell count after 48 h (Coulter Counter), MDA-MB-468; format: cell-based; conditions: treated 48 hours, extrapolated from FIGS. 1-9
Experimental: as §1, §2, §3

MDA-MB-231 (breast) = test: Anti-proliferation, cell count after 48 h (Coulter Counter), MDA-MB-231; format: cell-based; conditions: treated 48 hours, extrapolated from FIGS. 1-9
Experimental: as §1, §2, §3

HS578T (breast) = test: Anti-proliferation, cell count after 48 h (Coulter Counter), HS578T; format: cell-based; conditions: treated 48 hours, extrapolated from FIGS. 1-9
Experimental: as §1, §2, §3

BT549 (breast) = test: Anti-proliferation, cell count after 48 h (Coulter Counter), BT549; format: cell-based; conditions: treated 48 hours, extrapolated from FIGS. 1-9
Experimental: as §1, §2, §3

A498 (kidney) = test: Anti-proliferation, cell count after 48 h (Coulter Counter), A498; format: cell-based; conditions: treated 48 hours, extrapolated from FIGS. 1-9
Experimental: as §1, §2, §3

SK-N-SH (neuroblastoma) = test: Anti-proliferation, cell count after 48 h (Coulter Counter), SK-N-SH; format: cell-based; conditions: neuronal, treated 48 hours, extrapolated from FIGS. 1-9
Experimental: as §1, §2, §3

SK-N-MC (neuroblastoma) = test: Anti-proliferation, cell count after 48 h (Coulter Counter), SK-N-MC; format: cell-based; conditions: neuronal, treated 48 hours, extrapolated from FIGS. 1-9
Experimental: as §1, §2, §3

DU145 (prostate) = test: Anti-proliferation, cell count after 48 h (Coulter Counter), DU145; format: cell-based; conditions: treated 48 hours, extrapolated from FIGS. 1-9
Experimental: as §1, §2, §3

[1] = test system: panel of epithelial cancer cell lines; test: Cancer cell proliferation study, whole panel (FIGS. 1-9); format: cell-based; conditions: nine cancer cell lines, 48 hours, 10% FBS-supplemented medium
Experimental: as §1, §2

[2] = comparison with compound 1; cited from earlier work
Storage stability = format: physicochemical; conditions: stored at 0° C.
Experimental: Deprotection and reduction of alkene 15 using H2 and 10% Pd/C afforded β-C-glycoside 16 in 85% yield. Of the several methods attempted for cleavage of the silyl group (e.g., Bu4NF, formic acid, acidic ionic exchange resin, and BF3, Et2O conditions), only BF3,Et2O in CH3CN gave a clean reaction (see King, et al., Tetrahedron Lett., 36:4563 (1995), the pertinent portions of which are incorporated herein by reference). The N-acetyl group was cleaved by using 2 N KOH/EtOH at reflux at 120° C. to afford the final product 4. [drawing 8]

SMILES | GI50 (MCF-7 (breast)) | GI50 (MDA-MB-468 (breast)) | GI50 (MDA-MB-231 (breast)) | GI50 (HS578T (breast)) | GI50 (BT549 (breast)) | GI50 (A498 (kidney)) | GI50 (SK-N-SH (neuroblastoma)) | GI50 (SK-N-MC (neuroblastoma)) | GI50 (DU145 (prostate)) | anti-proliferative efficacy (increase in cell numbers relative to control) [1] | antiproliferative activity of C-glycoside relative to O-glycoside compound 1 [2] | storage time without decomposition (Storage stability)
CCCCCCCCCCCCCCCCOC[C@H](CC[C@H]1C[C@@H](O)[C@H](O)[C@@H](CO)O1)OC [Compound 2, (3S)-3-O-methyl-4-O-hexadecyl-2′-deoxy-β-D-glucopyranosylbutane, reference compound] | > 15 µM | 11.4 µM | > 15 µM | > 15 µM | > 15 µM | > 15 µM | > 15 µM | > 15 µM | > 15 µM | generally less efficacious than the other two glycoside ether lipids evaluated | several fold weaker activity | –
CCCCCCCCCCCCCCCCOC[C@H](CC[C@@H]1O[C@H](CO)[C@@H](O)[C@H](O)[C@H]1N)OC [Compound 4, (3S)-3-O-methyl-4-O-hexadecyl-2′-amino-2′-deoxy-β-Dlucopyranosylbutane] | 8.1 µM | 9 µM | 9.1 µM | 5.1 µM | 8.9 µM | 8.5 µM | 4.1 µM | 4.1 µM | 7.9 µM | – | – | more than one month without any decomposition
CCCCCCCCCCCCCCCCOC[C@H](CC[C@@H]1O[C@H](CO)[C@@H](O)[C@H](O)[C@H]1NC(C)=O)OC [Compound 17, (3S)-3-O-Methyl-4-O-hexadecyl 2′-acetamido-2′-deoxy-β-D-glucopyranosylbutane] | 25 µM | 34.4 µM | 40 µM | 21 µM | 28.5 µM | > 15 µM | > 15 µM | > 15 µM | > 15 µM | generally less efficacious than the other two glycoside ether lipids evaluated | – | –
